The values that follow come from PubChem BioAssay AID330 (DTP/NCI, 2004).

“And” between values parts separate entries of the source, which are not always exact repeats. Identical values can stand only once. Inconclusive results and toxic doses are left out.

This assay concerns P388 leukemia ip, CD2F1 mice, survival T/C. Kind of assay: NCI In Vivo Anticancer Drug Screen. Data for tumor model P388 Leukemia (intraperitoneal) in CD2F1 (CDF1) mice. The note with it: endpoint: median survival time, higher = longer survival. In outline: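 Mice carrying the transplanted tumor received test compound or vehicle. Survival was recorded in each group, and the value is the treated-group measurement divided by that of the vehicle-treated control group.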

The mark [1] stands for this setting: dose: 25.0 mg/kg/injection, schedule: Q01DX005 (ip), vehicle: Klucel (hydroxypropylcellulose) (HPC).
Where [2] appears, read: dose: 50.0 mg/kg/injection, schedule: Q01DX005 (ip), vehicle: Klucel (hydroxypropylcellulose) (HPC).
The mark [3] stands for this setting: dose: 100.0 mg/kg/injection, schedule: Q01DX005 (ip), vehicle: Klucel (hydroxypropylcellulose) (HPC).
The mark [4] stands for this setting: dose: 200.0 mg/kg/injection, schedule: Q01DX005 (ip), vehicle: Klucel (hydroxypropylcellulose) (HPC).
Setting [5] is: dose: 60.0 mg/kg/injection, schedule: Q01DX005 (ip), vehicle: saline with Tween-80.
[6] abbreviates: dose: 120.0 mg/kg/injection, schedule: Q01DX005 (ip), vehicle: saline with Tween-80.
Setting [7] is: dose: 240.0 mg/kg/injection, schedule: Q01DX005 (ip), vehicle: saline with Tween-80.

On to `COc1ccc(N=Nc2c(-c3ccccc3)nn(C(=S)S)c2-c2ccccc2)cc1`, for which the T/C was 93 % of control (dose: 50.0 mg/kg/injection, schedule: Q01DX005 (ip), vehicle: saline with Tween-80); 96 % of control (dose: 100.0 mg/kg/injection, schedule: Q01DX005 (ip), vehicle: saline with Tween-80); 93 % of control (dose: 200.0 mg/kg/injection, schedule: Q01DX005 (ip), vehicle: saline with Tween-80).
Turning to `CC(C)=CCC/C(C)=C/CC/C(C)=C/CC/C(C)=C/CC/C(C)=C/CC/C(C)=C/CC/C(C)=C/CC/C(C)=C/CC/C(C)=C/CO`, the T/C is 98 % of control (dose: 6.25 mg/kg/injection, schedule: Q01DX009 (ip), vehicle: saline + alcohol); 96 % of control (dose: 12.5 mg/kg/injection, schedule: Q01DX009 (ip), vehicle: saline + alcohol); 99 % of control (dose: 25.0 mg/kg/injection, schedule: Q01DX009 (ip), vehicle: saline + alcohol); 107 % of control (dose: 50.0 mg/kg/injection, schedule: Q01DX009 (ip), vehicle: saline + alcohol); 96 % of control (dose: 100.0 mg/kg/injection, schedule: Q01DX009 (ip), vehicle: saline + alcohol); 109 % of control (dose: 200.0 mg/kg/injection, schedule: Q01DX009 (ip), vehicle: saline + alcohol).
Consider `Cc1ccc(/C2=C(\c3ccc(C)cc3)N(c3ccccc3)CCCCN2c2ccccc2)cc1`, for which the T/C is 99 % of control (dose: 100.0 mg/kg/injection, schedule: Q04DX002 (ip), vehicle: Klucel (hydroxypropylcellulose) (HPC)); 99 % of control (dose: 200.0 mg/kg/injection, schedule: Q04DX002 (ip), vehicle: Klucel (hydroxypropylcellulose) (HPC)); 99 % of control (dose: 400.0 mg/kg/injection, schedule: Q04DX002 (ip), vehicle: Klucel (hydroxypropylcellulose) (HPC)).
Regarding `O=S(=O)([O-])[O-].OCCNCCNCC[OH2+].OCCNCCNCC[OH2+].[Ni+2]`, the T/C was 102 % of control (dose: 12.5 mg/kg/injection, schedule: Q01DX009 (ip), vehicle: saline) and 93 % of control (dose: 25.0 mg/kg/injection, schedule: Q01DX009 (ip), vehicle: saline).
In the case of `CN(CC(O)C(O)C(O)C(O)CN(C)N=O)N=O` (centres undefined), the T/C by setting is: (dose: 100.0 mg/kg/injection, schedule: Q01DX001 (ip), vehicle: saline) 115 % of control; (dose: 200.0 mg/kg/injection, schedule: Q01DX001 (ip), vehicle: saline) 100 % of control; (dose: 400.0 mg/kg/injection, schedule: Q01DX001 (ip), vehicle: saline) 110 % of control.
As for `CCOC(=O)c1csc(CCNC(=O)c2ccccc2)n1`, the T/C was 103 % of control (dose: 12.5 mg/kg/injection, schedule: Q01DX009 (ip), vehicle: other); 102 % of control (dose: 25.0 mg/kg/injection, schedule: Q01DX009 (ip), vehicle: other); 94 % of control (dose: 50.0 mg/kg/injection, schedule: Q01DX009 (ip), vehicle: other); 94 % of control (dose: 100.0 mg/kg/injection, schedule: Q01DX009 (ip), vehicle: other); 89 % of control (dose: 200.0 mg/kg/injection, schedule: Q01DX009 (ip), vehicle: other).
`C/C(=N\NC(=S)NNC(=S)N(C)c1ccccc1)c1ccccc1`: the T/C reads like this: under setting [1], 98 % of control; under setting [2], 93 % of control; under setting [3], 94 % of control; under setting [4], 91 % of control.
`N#CN.[Pb]`: the T/C by setting is: under setting [1], 115 % of control and 94 % of control; under setting [2], 101 % of control (2×) and 104 % of control; under setting [3], 107 % of control and 109 % of control and 110 % of control; under setting [4], 111 % of control.
Consider `Cc1ccc2c(c1)SP1(c3ccccc3)(Oc3c(c4ccccc4c4ccccc34)O1)S2`, for which the T/C runs as follows: under setting [5], 118 % of control; under setting [6], 110 % of control; under setting [7], 114 % of control.
`CC(=O)Oc1cc2c(cc1OC(C)=O)OCC(c1ccccc1)C2` (centres undefined): the T/C under setting [5] is 98 % of control, the T/C under setting [6] was 98 % of control and the T/C under setting [7] was 97 % of control.
`COc1cc2c(c(OC)c1O)-c1ccc(SC)c(=O)cc1C(NC(C)=O)CC2` (centres undefined): the T/C (dose: 1.25 mg/kg/injection, schedule: Q01DX009 (ip), vehicle: saline) is 117 % of control.
As for `Cc1cc(=O)oc2nn(CCO)c(C)c12`, the T/C was 105 % of control under setting [5], 100 % of control under setting [6] and 91 % of control under setting [7].
`COc1cc2c3c(c1OC)C=C[C@@H]1CCCN(CC2)[C@H]31`: the T/C (dose: 7.5 mg/kg/injection, schedule: Q01DX005 (ip), vehicle: Klucel (hydroxypropylcellulose) (HPC)) was 100 % of control; the T/C (dose: 15.0 mg/kg/injection, schedule: Q01DX005 (ip), vehicle: Klucel (hydroxypropylcellulose) (HPC)) was 98 % of control; the T/C (dose: 30.0 mg/kg/injection, schedule: Q01DX005 (ip), vehicle: Klucel (hydroxypropylcellulose) (HPC)) is 101 % of control.
Consider `NC(CS)C(=O)[O][Sn]([O]C(=O)C(N)CS)([O]C(=O)C(N)CS)[O]C(=O)C(N)CS` (centres undefined), for which the T/C was 99 % of control under setting [2], 108 % of control under setting [3] and 89 % of control under setting [4].
Consider `C=C1C(=O)OC2CC1CCC1(C)OC1CCC(C)=CCCC2(C)O` (centres undefined), for which the T/C runs as follows: (dose: 7.5 mg/kg/injection, schedule: Q01DX009 (ip), vehicle: Klucel (hydroxypropylcellulose) (HPC)) 100 % of control and 101 % of control; (dose: 15.0 mg/kg/injection, schedule: Q01DX009 (ip), vehicle: Klucel (hydroxypropylcellulose) (HPC)) 107 % of control and 119 % of control; (dose: 30.0 mg/kg/injection, schedule: Q01DX009 (ip), vehicle: Klucel (hydroxypropylcellulose) (HPC)) 107 % of control and 108 % of control; (dose: 60.0 mg/kg/injection, schedule: Q01DX009 (ip), vehicle: Klucel (hydroxypropylcellulose) (HPC)) 108 % of control.
Regarding `CC(=O)Nc1cccc(N=Cc2ccc[nH]2)c1`, the T/C is 99 % of control (dose: 100.0 mg/kg/injection, schedule: Q04DX003 (ip), vehicle: Klucel (hydroxypropylcellulose) (HPC)) and 100 % of control (dose: 200.0 mg/kg/injection, schedule: Q04DX003 (ip), vehicle: Klucel (hydroxypropylcellulose) (HPC)).
In the case of `COc1cc2cc(c1Cl)N1CC(O)C(C)(O)C(=O)NC(C)C(=O)OC(CC1=O)C1(C)OC1C(C)C1CC(O)(NC(=O)O1)C(OC)/C=C\C=C(\C)C2OC` (centres undefined), the T/C reads like this: (dose: 7.75 micrograms/kg/injection, schedule: Q01DX009 (ip), vehicle: none) 153 % of control; (dose: 15.5 micrograms/kg/injection, schedule: Q01DX009 (ip), vehicle: none) 159 % of control.
As to `COc1ccc(/C=N\NC(=O)CNC(=O)Nc2cccc([N+](=O)[O-])c2)cc1O`, the T/C was 107 % of control (dose: 15.0 mg/kg/injection, schedule: Q01DX005 (ip), vehicle: saline with Tween-80); 93 % of control (dose: 30.0 mg/kg/injection, schedule: Q01DX005 (ip), vehicle: saline with Tween-80); 89 % of control under setting [5]; 91 % of control and 93 % of control under setting [7].
Take `COC(=O)/C=C(\CCl)N=[N+]=[N-]`: the T/C runs as follows: under setting [5], 108 % of control; under setting [6], 109 % of control; under setting [7], 107 % of control.
With `O=C(O)c1ccc(OCCOc2ccccc2)c(Cl)c1`, the T/C under setting [5] was 98 % of control, the T/C under setting [6] was 95 % of control and the T/C under setting [7] is 93 % of control.
